Source: patent US11291625B2, “Antimicrobial compositions and methods for reducing microbial contamination” (PolyVation B.V., priority 2015, dated 2022)

Assay: BKC / BEZ release assay from polymer film with aqueous BPB solution
Format: physicochemical
Settings: for release from 0.45% biocide coating without copolymer upon addition of the BPB solution: reference, no polymer
Protocol: The different 5 wt % polymer formulations were supplemented with 0.45 wt % BKC and 20 μl coated to the first well of each row of a 96-well plate. After evaporation of the solvent (2-propanol), 100 μl of an aqueous BPB ([…]) solution (25×10^−3 mmol/L) was added to the coated wells and the plate was incubated for 30 seconds at room temperature. Next, the aqueous phase was removed from the well and the formation of blue BPB-BKC complexes was assessed by visual inspection. This process was repeated until blue BPB-BKC complexes were no longer observed, and the number of repeated BPB incubation steps was recorded.
The slow release properties of the PVPM20, PVPMDM, PVPMEM and PVPDDM co-polymer formulations were verified in a BKC and a BEZ release test that were performed in 96-well plates. The different polymer formulations (i.e. PVPM20-85:15, PVPM20-80:20, PVPM20-65:35, PVPMDM-60:40, PVPMDM-75:25, PVPMEM-80:20 and PVPDDM-80:20 in 2-propanol at 2.5 wt % were supplemented with 0.45 wt % BKC or BEZ. 20 μl was coated to the first well of each row of a 96-well plate. After evaporation of the 2-propanol solvent, 100 μl of an aqueous BPB solution (25×10^−3 mmol/L) was added to the coated wells and the plate was incubated for 30 seconds at room temperature. BPB forms a blue complex with free BKC and free BEZ when it is released from the polymer film into an aqueous solution. Of note, the BPB-BKC or BPB-BEZ complex is blue, whereas the BPB solution itself is purple (20). Next, the aqueous phase was removed from the well and the formation of blue BPB-BKC or BPB-BEZ complexes was assessed by visual inspection. This process was repeated until blue BPB-BKC complexes were no longer observed, and the number of repeated BPB incubation steps was recorded.
The number of cycles needed to release readily detectable amounts of BKC or BEZ was used as a measure to assess the BKC-retaining or BEZ-retaining properties of the different polymer formulations.

Compound | Test2 (BEZ): Number of incubations after which BEZ was no longer detectable (0.45 wt % BEZ, 30 seconds incubations with aqueous BPB solution, room temperature) [x] | release from 0.45% biocide coating without copolymer upon addition of the BPB solution | Test1 (BKC): Number of incubations after which BKC was no longer detectable (0.45 wt % BKC, 30 seconds incubations with aqueous BPB solution, room temperature) [x]
CC(C)(C)CC(C)(C)c1ccc(OCCOCC[N+](C)(C)Cc2ccccc2)cc1 [BEZ only, benzethonium chloride] | 1 | dissolved instantaneously | 
benzalkonium chloride [BKC only] |  | dissolved instantaneously | 1
